ChEMBL document CHEMBL3870347, “Antimycobacterial activity of novel hydrazide-hydrazone derivatives with 2H-chromene and coumarin scaffold” (Bioorg Med Chem Lett, 2017)
In brackets after ≈: the same amount, converted by molar mass. Where a name gives a salt, the structure may show the parent alone.

Legend:
[1] = Cytotoxicity against HEK293T cells assessed as decrease in cell viability after 72 hrs by MTT assay; format: toxicity, cell-based, HEK-293T; settings: human
[2] = test system: Mycobacterium tuberculosis; assay: Antimycobacterial activity against Mycobacterium tuberculosis H37Rv after 45 days; format: functional
[3] = Selectivity index, ratio of IC50 for HEK293T cells to MIC for Mycobacterium tuberculosis H37Rv; format: toxicity, cell-based, HEK-293T; settings: human, read-out: Selectivity Index

| SMILES | IC50 at 72 h [1] | MIC [2] | selectivity ratio [3] |
| --- | --- | --- | --- |
| O=C(N/N=C/c1c(Cl)c2ccccc2oc1=O)c1ccncc1 | 12.6 µM | 6.1 µM (≈ 2 µg/mL) | – |
| COc1ccc(C(=O)N/N=C/C2=Cc3ccccc3OC2)cc1 | 36 µM | 6.48 µM (≈ 2 µg/mL) | – |
| CC1Oc2ccccc2C=C1/C=N/NC(=O)c1ccc(Cl)cc1 (centres undefined) | – | > 6.12 µM | – |
| Cc1nnsc1C(=O)N/N=C/C1=Cc2ccccc2OC1c1ccccc1 (centres undefined) | 30.2 µM | 0.53 µM (≈ 0.2 µg/mL) | 56.9 |
| O=C(N/N=C/C1=Cc2ccccc2OC1)c1ccc(Cl)cc1 | – | 6.39 µM (≈ 2 µg/mL) | – |
| O=C(N/N=C/C1=Cc2ccccc2OC1c1ccccc1)c1cccs1 (centres undefined) | – | > 5.54 µM | – |
| Cc1nnsc1C(=O)N/N=C/c1c(Cl)c2ccccc2oc1=O | 30.2 µM | 0.67 µM (≈ 0.234 µg/mL) | 45 |
| COc1ccc(C(=O)N/N=C/C2=Cc3ccccc3OC2C)cc1 (centres undefined) | – | 6.2 µM (≈ 2 µg/mL) | – |
| CC1Oc2ccccc2C=C1/C=N/NC(=O)c1ccncc1 (centres undefined) | 76.3 µM | 0.17 µM (≈ 0.0499 µg/mL) | 449 |
| O=C(N/N=C/c1c(Cl)c2ccccc2oc1=O)c1ccc(F)cc1 | 26.2 µM | 1.45 µM (≈ 0.5 µg/mL) | – |
| O=C(N/N=C/c1c(Cl)c2ccccc2oc1=O)c1ccc(O)cc1 | 33.1 µM | 5.83 µM (≈ 2 µg/mL) | – |
| O=C(N/N=C/C1=Cc2ccccc2OC1)c1cccs1 | 22.1 µM | 7.03 µM (≈ 2 µg/mL) | – |
| O=C(N/N=C/C1=Cc2ccccc2OC1c1ccccc1)c1ccc(F)cc1 (centres undefined) | 30.9 µM | 1.34 µM (≈ 0.499 µg/mL) | – |
| CC1Oc2ccccc2C=C1/C=N/NC(=O)c1ccc(O)cc1 (centres undefined) | 48.8 µM | 0.64 µM (≈ 0.197 µg/mL) | 76.2 |
| CC1Oc2ccccc2C=C1/C=N/NC(=O)c1ccco1 (centres undefined) | 21.2 µM | 0.18 µM (≈ 0.0508 µg/mL) | 118 |
| CC1Oc2ccccc2C=C1/C=N/NC(=O)c1ccccc1 (centres undefined) | 23.3 µM | 6.84 µM (≈ 2 µg/mL) | – |
| O=C(N/N=C/C1=Cc2ccccc2OC1c1ccccc1)c1ccc(Cl)cc1 (centres undefined) | 13.2 µM | > 5.14 µM | – |
| NNC(=O)c1ccncc1 [ISONIAZID] | – | 1.45 µM (≈ 0.199 µg/mL) | – |
| CC[C@@H](CO)NCCN[C@@H](CC)CO [ETHAMBUTOL HYDROCHLORIDE] | – | 7.64 µM | – |
| O=C(N/N=C/C1=Cc2ccccc2OC1c1ccccc1)c1ccco1 (centres undefined) | 11.9 µM | 0.15 µM (≈ 0.0517 µg/mL) | 79.4 |
| O=C(N/N=C/c1c(Cl)c2ccccc2oc1=O)c1ccccc1 | 28.6 µM | 6.12 µM (≈ 2 µg/mL) | – |
| COc1ccc(C(=O)N/N=C/C2=Cc3ccccc3OC2c2ccccc2)cc1 (centres undefined) | 90.7 µM | 0.13 µM (≈ 0.05 µg/mL) | 697 |
| O=C(N/N=C/C1=Cc2ccccc2OC1)c1ccco1 | 47.3 µM | 0.74 µM (≈ 0.199 µg/mL) | 63.9 |
| CC1Oc2ccccc2C=C1/C=N/NC(=O)c1cccs1 (centres undefined) | – | > 6.7 µM | – |
